The numbers were not newly measured in US20100227921A1, “AMINO ACID AND PEPTIDE CARBAMATE PRODRUGS OF […] USES THEREOF” (SHIRE LLC, priority 2009, published 2010), which cites them from elsewhere.

The conditions of data set [1]: cited from earlier work.
For data set [2] the following is noted: 75 mg immediate release dosage; Afilalo et al. 2008; cited from earlier work.

`CC[C@@H](c1cccc(O)c1)[C@@H](C)CN(C)C` (racemic) [Tapentadol, (−)-(1R,2R)-3-(3-dimethyl-amino-1-ethyl-2-methyl-propyl)-phenol]: the “clearance (printed C1)” value in data set [1] (Terlinden et al. (2007)) is 1468 ± 122 mL/min. Besides, the plasma half-life in data set [1] (humans) was 4.5 h. Besides, in data set [2], the patients with nausea/vomiting is given as 30-35% and the “treated patients with constipation” value was approximately 11%.
